Results taken from article PMC9822769, “The Strange Case: The Unsymmetric Cisplatin-Based Pt(IV) Prodrug [Pt(CH3COO)Cl2(NH3)2(OH)] Exhibits Higher Cytotoxic Activity with respect to Its Symmetric Congeners due to Carrier-Mediated Cellular Uptake” (Bioinorganic Chemistry and Applications, 2022).

Legend:
[1] = Stability in cell culture medium (HPLC-MS); format: physicochemical; conditions: 72 h, 37°C, dark, RPMI 1640 + 10% FBS, 100 μM
Protocol: The stability in the solution of Complexes 1–3 (100 μM) was studied by aging the compounds for 72 h at 37°C in the dark in the same cell culture medium employed for the A2780 cell line (i.e., RPMI 1640 medium added with 10% fetal bovine serum, FBS). The area of the chromatographic peaks of the Pt complexes was monitored in HPLC-MS, using a 70 : 30 mixture of 15 mM aqueous HCOOH and CH3OH as the mobile phase (see Section 2.3, settings i), for further instrumental details). ESI mass spectra, recorded using cone and capillary voltages of +30 V (positive ion mode) and 2.70 kV, were used to confirm the identity of the species.

MM98 = test: Resazurin reduction cell viability assay, MM98; format: cell-based, human; conditions: 72 h of treatment; mean ± sd
Protocol: (§1) The compounds under investigation were tested on a panel of commercial human cancer cell lines: ovarian endometrioid adenocarcinoma A2780 (ICLC HTL98008), its cisplatin-resistant variant A2780cisR (ECACC 93112517), colon carcinoma HCT 116 (ECACC 91091005), breast invasive ductal carcinoma MCF7 (ECACC 86012803), embryonal carcinoma NTERA-2 clone D1 (also known as NT2/D1, ICLC HTL97025), and lung adenocarcinoma A549 (ICLC HTL03001). Furthermore, a cell line derived from the pleural effusion of a patient with untreated malignant pleural mesothelioma (MPM) was added to the panel, namely, MM98 (sarcomatoid phenotype). Commercial cells were purchased from the European Collection of Authenticated Cell Cultures (ECACC, UK) or the Interlab Cell Line Collection (ICLC, Genoa, Italy), while the MM98 cell line was obtained from the Pathology Unit of the National Hospital of Alessandria (Italy).
(§2) The following media were used to grow the cells: RPMI 1640 (for A2780, A2780cisR, NT2/D1, and A549 cells), DMEM (for MCF7 cells), DMEM supplemented with nonessential amino acids (for MM98 cells), and McCoy's 5A (for HCT 116 cells). All media contained L-glutamine (2 mM) and were added with penicillin (100 IU·mL^−1), streptomycin (100 mg·L^−1), and 10% heat inactivated FBS. To maintain resistance in A2780cisR cells, cisplatin (1 μM) was added to the medium every two passages.
(§3) Continuous treatments (CT) were carried out at 37°C in a humidified chamber with 5% CO2. Cisplatin was dissolved in a 0.9% w/v NaCl aqueous solution and brought to pH = 3 with HCl (final stock concentration 1 mM). The Pt(IV) Complexes 1–3 were dissolved in milliQ water (final stock concentration 5 mM) and stored at −20°C. The stock concentration was confirmed with inductively coupled plasma-mass spectrometry (ICP-MS) measurements. The mother solutions were diluted in a complete medium to the required concentration.
(§4) To assess the growth inhibition of the compounds under investigation, a cell viability test (i.e., the resazurin reduction assay) was used. […] At the end of the treatment (72 h), viability was evaluated with 100 μg·mL^−1 resazurin (Acros Chemicals, France) in a fresh medium for 1 h at 37°C, and the amount of the reduced product, resorufin, was measured by fluorescence (excitation λ = 535 nm, emission λ = 595 nm) with a Tecan Infinite F200Pro plate reader (Tecan, Austria). In each experiment, cells were challenged with drug candidates at different concentrations, and the final data were calculated from at least three replicates of the same experiment performed in triplicate. The fluorescence of 8 wells containing a medium without cells was used as a blank. Fluorescence data were normalized to 100% cell viability for nontreated cells. […]

A2780cisR = test: Resazurin reduction cell viability assay, A2780cisR; format: cell-based, human; conditions: for resistance factor, RF = IC50 A2780cisR/IC50 A2780: 72 h, rounded to the nearest unity; for IC50: 72 h of treatment, cisplatin-resistant, mean ± sd
Protocol: as §1, §2, §3
To assess the growth inhibition of the compounds under investigation, a cell viability test (i.e., the resazurin reduction assay) was used. In brief, 2–5 × 10^3 cells per well (depending on the cell line) were seeded in black sterile tissue culture-treated 96-well plates. At the end of the treatment (72 h), viability was evaluated with 100 μg·mL^−1 resazurin (Acros Chemicals, France) in a fresh medium for 1 h at 37°C, and the amount of the reduced product, resorufin, was measured by fluorescence (excitation λ = 535 nm, emission λ = 595 nm) with a Tecan Infinite F200Pro plate reader (Tecan, Austria). In each experiment, cells were challenged with drug candidates at different concentrations, and the final data were calculated from at least three replicates of the same experiment performed in triplicate. The fluorescence of 8 wells containing a medium without cells was used as a blank. Fluorescence data were normalized to 100% cell viability for nontreated cells. The half-inhibiting concentration (IC50), defined as the concentration of the drug that reduces cell viability by 50%, was obtained from the dose-response sigmoid using Origin Pro (version 8, Microcal Software Inc., Northampton, MA, USA).

[2] = set-up: method as in PMID 32296997; conditions: vs. Ag/AgCl, 3M KCl, glassy carbon electrode, scan rate 0.2 V·s^−1; cited from earlier work
[3] = RP-HPLC lipophilicity (log k′) on C18 column; format: physicochemical; conditions: 30% methanol/70% aqueous 15 mM formic acid
Protocol: Retention times, tR, were measured on two columns: (i) a standard C18 column (Phenomenex Phenosphere-NEXT, 250 × 4.6 mm, 5 μm) and (ii) an IAM.PC.DD.2 column (Regis, 10 cm × […], 10 μm packing 300 Å pore size), prepared by covalently bonding cell-membrane-forming phospholipids to silica. On (i), a chromatogram was performed for each complex (0.25 mM) in a fixed eluent composition (30% methanol/70% aqueous 15 mM formic acid; flow rate 0.5 mL·min^−1) using a Waters HPLC-MS instrument (equipped with an Alliance 2695 separation module, a 2487 dual lambda absorbance detector, and a 3100 mass detector). The UV-vis detector was set at 210 nm. In (ii), the mobile phase consisted of 20 mM ammonium acetate buffer at pH 6.9 and acetonitrile flowing at 1 mL·min^−1. The samples were dissolved in the mobile phase in a concentration range of 50–100 μg·mL^−1. An HPLC Varian ProStar instrument equipped with a 410 autosampler, a PDA 335 LC detector, and Galaxie Chromatography Data System Version 1.9.302.952 was used.
The different tRs were used to calculate log k′, which is the logarithm of the retention factor k′ = (tR − t0)/t0, where t0 is the column dead time (i.e., the tR of KCl or citric acid used as the internal reference for (i) and (ii), respectively).
The lipophilicity of a compound is commonly described by the octanol-water partition coefficient, log Po/w, which can be defined as the ratio of the concentration of the compound between the organic (n-octanol) and the aqueous phase. However, other faster methods, such as RP-HPLC, have often been used to evaluate lipophilicity instead of the shake-flask method. […] Therefore, the retention times (tR) of the complexes were determined on a C18 column using a 70/30 (% v/v) water/MeOH mixture as an eluent, and the data were expressed as log k′ (k′ = (tR − t0)/t0, where t0 is the column dead time of the column). The trend of the measured log k' was 3 > 2 > cisplatin > 1, as expected based on the structure of the complexes, the acetato ligand being more lipophilic than the hydroxido one (Table 1).

NT2-D1 = test: Resazurin reduction cell viability assay, NT2-D1; format: cell-based, human; conditions: 72 h of treatment; mean ± sd
Protocol: as §1, §2, §3, §4

A549 = test: Resazurin reduction cell viability assay, A549; format: cell-based, human; conditions: 72 h of treatment; mean ± sd
Protocol: as §1, §2, §3, §4

| Structure (SMILES) | partial hydrolysis [1] | IC50 (MM98) [µM] | resistance factor, RF = IC50 A2780cisR/IC50 A2780 (A2780cisR) | IC50 (A2780cisR) [µM] | E p (reduction peak potential) [2] [V] | Log k′ [3] | IC50 (NT2-D1) [µM] | IC50 (A549) [µM] | remaining intact, % of the original HPLC peak [1] [%] |
| --- | --- | --- | --- | --- | --- | --- | --- | --- | --- |
| CC(=O)[O][Pt]([OH])([Cl])[Cl].N.N [Complex 2, (OC-6-44)-acetatodiamminedichloridohydroxidoplatinum(IV)] | approximately 40% | 3.67 ± 1.32 | 6 | 1.02 ± 0.68 | −0.618 | −1.10 | 0.21 ± 0.08 | 3.11 ± 0.74 | – |
| CC(=O)[O][Pt]([NH2])([NH2])([Cl])([Cl])[O]C(C)=O [Complex 3, (OC-6-33)-diamminedichloridodiacetatoplatinum(IV)] | – | > 100 | – | > 100 | −0.486 | −0.84 | 4.3 ± 1.13 | 78 ± 17.7 | > 85 |
| N.N.[OH][Pt]([OH])([Cl])[Cl] [Complex 1, (OC-6-33)-diamminedichloridodihydroxidoplatinum(IV)] | – | > 100 | 14 | 52.1 ± 3.48 | −0.815 | −1.50 | 1.44 ± 0.16 | 48.2 ± 27.7 | > 95 |
| N.N.[Cl][Pt][Cl] [Cisplatin, (SP-4-2)-diamminedichloridoplatinum(II)] | – | 3.2 ± 1.02 | 13 | 6.22 ± 1.02 | – | – | 0.1 ± 0.04 | 3.8 ± 0.7 | – |
